Columns and labels:
[1] = system: Human glioblastoma (GBM) cells; assay: Glioblastoma cell migration; type: cell-based; settings: 12.5, 25, 50, and 100 μM; after 24 hours
Method: Cell migration was tested after 24 hours.

EphB4 kinase domain = target: T1, EphB4 kinase domain (Homo sapiens, UniProt P54760); assay: Radiometric protein kinase assay (33PanQinase Activity Assay), EphB4
T1 sequence (P54760 615-899 limits assumed): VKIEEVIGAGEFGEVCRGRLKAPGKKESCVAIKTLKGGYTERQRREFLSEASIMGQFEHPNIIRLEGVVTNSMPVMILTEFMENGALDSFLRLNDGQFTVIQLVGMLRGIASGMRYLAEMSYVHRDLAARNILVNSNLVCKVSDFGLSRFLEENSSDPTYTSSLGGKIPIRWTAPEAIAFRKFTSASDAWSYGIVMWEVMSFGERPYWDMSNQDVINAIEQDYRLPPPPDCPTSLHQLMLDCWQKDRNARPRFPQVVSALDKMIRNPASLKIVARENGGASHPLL
Method: (§2) Kinase domains were produced by ProQinase using human cDNAs to express recombinant GST/His-fusion proteins that were purified by affinity chromatography and determined to be enzymatically active by phosphorylation of a Poly (Glu, Tyr) substrate. The FDA compounds were assayed in 10 concentrations in the range from 1×10^−4 M to 3×10^−9 M for their ability to effect kinase activities. The final DMSO concentration in the reaction cocktails was 1% in all cases. Kinase assays were performed in 96-well FlashPlates™ from PerkinElmer (Boston, Mass., USA) in a 50 μl reaction volume. The reaction cocktail was pipetted in four steps in the following order: 20 μl of assay buffer (standard buffer), 5 μl of ATP solution (in H2O), 5 μl of test compound (in 10% DMSO), and 20 μl enzyme/substrate mix. […] The reaction cocktails were incubated at 30° C. for 60 minutes. The reaction was stopped with 50 μl of 2% (v/v) H3PO4, plates were aspirated and washed two times with 200 μl 0.9% (w/v) NaCl. Incorporation of ^33Pi was determined with a microplate scintillation counter (Microbeta, Wallac). All assays were performed with a BeckmanCoulter/SAGIAN™ Core System. The median value of the counts in column 1 (n=8) of each assay plate was defined as “low control”. This value reflects unspecific binding of radioactivity to the plate in the absence of a protein kinase but in the presence of the substrate. […] The residual activity (in %) for each well of a particular plate was calculated by using the following formula: Res. Activity (%)=100×[(cpm of compound−low control)/(high control−low control)] […]
(§3) For each kinase, the median value of the cpm of three wells with complete reaction cocktails, but without kinase, was defined as “low control” (n=3). This value reflects unspecific binding of radioactivity to the plate in the absence of protein kinase but in the presence of the substrate. […] The residual activity (in %) for each well of each row of a particular plate was calculated by using the following formula: Res. Activity (%)=100×[(cpm of compound−low control)/(high control−low control)]. […]

[2] = system: Complete freund's adjuvant (CFA) Induced pain model; assay: Complete freund's adjuvant (CFA) Induced pain model (Hargreaves and Von Frey tests); type: in vivo, CD1 mice
Method: (§1) Animals. A total of 40 male outbred CD1 mice were obtained from Charles River Laboratories at 8 weeks of age. Mice were housed in the animal facility of UT southwestern Medical Center, with constant temperature (21-24° C.) and humidity (30-50%) with free access to standard animal feed and water. The room was kept on a 12/12 light/dark cycle, with white light (light cycle) on at 2400 hours and red lights (dark cycle) on at 1200 hours. All of the procedures were conducted with approval from the UT southwestern Medical Center Institutional Animal Care and Use Committee (IACUC Protocol No. 2017-102090). Ugo Basile® the original Plantar Test (Hargreaves Apparatus) was used for thermal stimulation, where infrared beam was adjusted to give an average paw withdrawal latency of about 10 s in wild type mice and cut-off time was set to 30 s to avoid tissue damage. Ugo Basile® Dynamic Plantar Aesthesiometer (DPA) for mechanical stimulation (Electronic Von Frey) were used for mechanical stimulation, where the force (grams) was set at 50 g to prevent tissue damage. Animals were placed in clear acrylic cubicles (22×16.5×14 cm) for at least one hour prior testing. The testing/recording was done every 5 minutes with no repetition for the same mouse. Blinded person(s) to the individual treatment assignments recorded true reflexes.
Complete freund's adjuvant (CFA) Induced pain model. […] A baseline was for detected for the mice behavior towards thermal hyperalgesia using Hargreaves Test and mechanical allodynia using Von Frey Test. The drugs were administered via gavage for three consecutive days before CFA injection. On the morning of the experiment (6 hours before CFA injection), the last dose of drugs was administered. CFA was injected in the right paw, while the left paw remained un-injected as control. The testing involved two stimulus thermal hyperalgesia using Hargreaves Test and mechanical allodynia using Von Frey Test at Days 1, 2, 3, and 5.

[3] = system: Capsaicin Induced pain model; assay: Capsaicin Induced pain model (Hargreaves and Von Frey tests); type: in vivo, CD1 mice; settings: capsaicin-injected paw vs controls; Demeclocycline 17 mg/kg/day, DC 7 mg/kg/day, MCD 5 mg/kg/day, p.o
Method: as §1
Capsaicin Induced pain model. […]

EphB2 kinase domain = target: T2, EphB2 kinase domain (Homo sapiens, UniProt P29323); assay: Radiometric protein kinase assay (33PanQinase Activity Assay), EphB2
T2 sequence (P29323 621-884 limits assumed): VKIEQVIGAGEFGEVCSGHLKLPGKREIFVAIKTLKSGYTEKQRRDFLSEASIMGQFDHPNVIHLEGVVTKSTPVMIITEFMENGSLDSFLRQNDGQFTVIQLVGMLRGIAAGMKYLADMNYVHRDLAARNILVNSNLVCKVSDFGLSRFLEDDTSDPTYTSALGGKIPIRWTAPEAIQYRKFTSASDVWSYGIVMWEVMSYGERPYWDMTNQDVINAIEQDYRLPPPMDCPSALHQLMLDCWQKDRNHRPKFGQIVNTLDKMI
Method: as §2, §3

EphB1 kinase domain = target: T3, EphB1 kinase domain (Homo sapiens, UniProt P54762); assay: Radiometric protein kinase assay (33PanQinase Activity Assay), EphB1; settings: for inhibition of EphB1 kinase activity: concentrations up to 100 μM
T3 sequence (P54762 619-882 limits assumed): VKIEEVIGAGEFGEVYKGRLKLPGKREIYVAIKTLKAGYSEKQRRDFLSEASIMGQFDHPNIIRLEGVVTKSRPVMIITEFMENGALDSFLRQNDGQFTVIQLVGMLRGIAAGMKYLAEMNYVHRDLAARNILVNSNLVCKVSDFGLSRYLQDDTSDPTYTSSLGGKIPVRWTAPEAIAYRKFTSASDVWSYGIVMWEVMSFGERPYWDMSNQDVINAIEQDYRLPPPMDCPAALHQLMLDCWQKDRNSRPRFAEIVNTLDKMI
Method: (§4) Kinase domains were produced by ProQinase using human cDNAs to express recombinant GST/His-fusion proteins that were purified by affinity chromatography and determined to be enzymatically active by phosphorylation of a Poly (Glu, Tyr) substrate. The FDA compounds were assayed in 10 concentrations in the range from 1×10^−4 M to 3×10^−9 M for their ability to effect kinase activities. The final DMSO concentration in the reaction cocktails was 1% in all cases. Kinase assays were performed in 96-well FlashPlates™ from PerkinElmer (Boston, Mass., USA) in a 50 μl reaction volume. The reaction cocktail was pipetted in four steps in the following order: 20 μl of assay buffer (standard buffer), 5 μl of ATP solution (in H2O), 5 μl of test compound (in 10% DMSO), and 20 μl enzyme/substrate mix. […] The reaction cocktails were incubated at 30° C. for 60 minutes. The reaction was stopped with 50 μl of 2% (v/v) H3PO4, plates were aspirated and washed two times with 200 μl 0.9% (w/v) NaCl. Incorporation of ^33Pi was determined with a microplate scintillation counter (Microbeta, Wallac). All assays were performed with a BeckmanCoulter/SAGIAN™ Core System. The median value of the counts in column 1 (n=8) of each assay plate was defined as “low control”. This value reflects unspecific binding of radioactivity to the plate in the absence of a protein kinase but in the presence of the substrate. The median value of the counts in column 7 of each assay plate (n=8) was taken as the “high control”, i.e. full activity in the absence of any inhibitor. The difference between high and low control was taken as 100% activity. As part of the data evaluation the low control value from a particular plate was subtracted from the high control value as well as from all 80 “compound values” of the corresponding plate. The residual activity (in %) for each well of a particular plate was calculated by using the following formula: Res. Activity (%)=100×[(cpm of compound−low control)/(high control−low control)]
(§5) The fitting method used was a least-squares fit.
For each kinase, the median value of the cpm of three wells with complete reaction cocktails, but without kinase, was defined as “low control” (n=3). This value reflects unspecific binding of radioactivity to the plate in the absence of protein kinase but in the presence of the substrate. Additionally, for each kinase the median value of the cpm of three other wells with the complete reaction cocktail, but without any compound, was taken as the “high control”, i.e. full activity in the absence of any inhibitor (n=3). The difference between high and low control was taken as 100% activity for each kinase. As part of the data evaluation the low control of each row of a particular plate was subtracted from the high control value as well as from their corresponding “compound values”. The residual activity (in %) for each well of each row of a particular plate was calculated by using the following formula: Res. Activity (%)=100×[(cpm of compound−low control)/(high control−low control)]. […] The mathematical model used was “Sigmoidal response (variable slope)” with parameters “top” fixed at 100% and “bottom” at 0%.

EphB3 kinase domain = target: T4, EphB3 kinase domain (Homo sapiens, UniProt P54753); assay: Radiometric protein kinase assay (33PanQinase Activity Assay), EphB3
T4 sequence (P54753 633-896 limits assumed): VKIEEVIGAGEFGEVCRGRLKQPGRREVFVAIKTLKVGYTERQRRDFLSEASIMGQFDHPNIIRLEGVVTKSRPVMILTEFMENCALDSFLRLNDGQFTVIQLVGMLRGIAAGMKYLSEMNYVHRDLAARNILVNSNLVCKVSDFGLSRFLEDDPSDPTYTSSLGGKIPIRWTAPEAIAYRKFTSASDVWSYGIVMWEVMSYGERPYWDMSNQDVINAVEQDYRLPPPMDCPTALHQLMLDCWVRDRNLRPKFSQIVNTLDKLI
Method: as §4, §5
For each kinase, the median value of the cpm of three wells with complete reaction cocktails, but without kinase, was defined as “low control” (n=3). This value reflects unspecific binding of radioactivity to the plate in the absence of protein kinase but in the presence of the substrate. Additionally, for each kinase the median value of the cpm of three other wells with the complete reaction cocktail, but without any compound, was taken as the “high control”, i.e. full activity in the absence of any inhibitor (n=3). […] The residual activity (in %) for each well of each row of a particular plate was calculated by using the following formula: Res. Activity (%)=100×[(cpm of compound−low control)/(high control−low control)]. […]

[4] = tested at Days 1, 2, 3, and 5, P<0.001

Row | IC50 (EphB4 kinase domain) [µM] | IC50 (EphB2 kinase domain) [µM] | IC50 (EphB1 kinase domain) [µM] | IC50 (EphB3 kinase domain) [µM] | inhibition of EphB1 kinase activity (EphB1 kinase domain) | SMILES | also measured
1 |  |  |  |  | failed to inhibit | NC(=O)C(c1ccccc1)(c1ccccc1)[C@@H]1CCN(CCc2ccc3c(c2)CCO3)C1 [darifenacin] | 
2 | 37 to 92 | 37 to 92 | 56 | 92 |  | CN(C)c1ccc(O)c2c1C[C@H]1C[C@H]3[C@H](N(C)C)C(O)=C(C(N)=O)C(=O)[C@@]3(O)C(O)=C1C2=O [minocycline] | 

The remaining lines, values behind:

Row | SMILES | IC50 (EphB4 kinase domain) [µM] | IC50 (EphB2 kinase domain) [µM] | IC50 (EphB1 kinase domain) [µM] | IC50 (EphB3 kinase domain) [µM] | inhibition of EphB1 kinase activity (EphB1 kinase domain) | also measured
3 | CN(C)[C@@H]1C(O)=C(C(N)=O)C(=O)[C@@]2(O)C(O)=C3C(=O)c4c(O)ccc(Cl)c4[C@@H](O)[C@H]3C[C@@H]12 [Demeclocycline, demeclocycline] | 37 to 92 | 37 to 92 | 39 | 47 |  | glioblastoma cell migration [1]: inhibited glioblastoma cell migration; paw withdrawal latency, thermal stimulus (Hargreaves) ([2]; injected paw vs controls, p.o): prolonged the paw withdrawal latency; response to mechanical stimulus (von Frey) ([2]; injected paw vs controls, p.o): same behavior was observed; time until which significant improvement for mechanical (tactile) allodynia was shown [2, 4]: 1 days; time until which significant improvement in paw withdrawal latency for thermal hyperalgesia was shown [2, 4]: ≤ 2 days; paw withdrawal latency, thermal stimulus (Hargreaves) [3]: prolonged the paw withdrawal latency; response to mechanical stimulus (von Frey) [3]: same behavior was observed; influence on EphB3 catalytic activity (EphB3 kinase domain; low nanomolar ranges (biphasic)): slightly elevated activity
4 | CN(C)[C@@H]1C(O)=C(C(N)=O)C(=O)[C@@]2(O)C(O)=C3C(=O)c4c(O)ccc(Cl)c4[C@@](C)(O)[C@H]3C[C@@H]12 [chlortetracycline] | 37 to 92 | 37 to 92 | 44 | 55 |  | 
5 | CCC(=O)NCC[C@@H]1CCc2ccc3c(c21)CCO3 [ramelteon] |  |  |  |  | failed to inhibit | 

— patent publication US20220347194A1, “METHODS AND COMPOSITIONS FOR TREATING PAIN AND OTHER EPH RECEPTOR-ASSOCIATED CONDITIONS” (THE BOARD OF REGENTS OF THE UNIVERSITY OF TEXAS SYSTEM, priority 2019, published 2022)
